Reference: ChEMBL document CHEMBL1148225, “Discovery and SAR of trisubstituted thiazolidinones as CCR4 antagonists” (Bioorg Med Chem Lett, 2004)
Several values for one entry are separate records, joined by “and”; a condition that tells them apart may be missing. Identical values can stand only once.

Target: T1, C-C chemokine receptor type 4 (Homo sapiens, UniProt P51679)
T1 sequence (P51679 whole entry): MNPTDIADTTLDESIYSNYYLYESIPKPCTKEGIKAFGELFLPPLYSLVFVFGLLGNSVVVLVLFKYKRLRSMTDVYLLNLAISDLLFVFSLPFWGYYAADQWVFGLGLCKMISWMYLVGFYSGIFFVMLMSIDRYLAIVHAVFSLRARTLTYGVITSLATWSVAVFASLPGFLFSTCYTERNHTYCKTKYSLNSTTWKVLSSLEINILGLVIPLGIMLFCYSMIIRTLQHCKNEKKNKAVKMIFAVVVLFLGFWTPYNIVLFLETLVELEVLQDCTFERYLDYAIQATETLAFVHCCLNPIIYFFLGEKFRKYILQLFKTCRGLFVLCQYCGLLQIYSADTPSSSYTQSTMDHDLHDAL
Assay: Inhibition of [125I]MDC binding to recombinant human C-C chemokine receptor type 4 (CCR4) expressed in murine pre-B cells
Type: cell-based

Row | IC50 | Compound
1 | 1.5 µM | O=C(C[C@H]1S[C@H](c2ccc(Cl)cc2Cl)N(CC(=O)NCCCN2CCOCC2)C1=O)NCc1cc(Cl)cc(Cl)c1
2 | 4 µM | O=C(C[C@H]1S[C@H](c2ccc(F)cc2)N(CC(=O)NCCCN2CCOCC2)C1=O)NCc1cccc2ccccc12
3 | 0.79 µM | O=C(C[C@H]1S[C@H](c2ccc(Cl)cc2Cl)N(CC(=O)NCCCN2CCOCC2)C1=O)NCc1cccc(Cl)c1Cl
4 | 2.4 µM | O=C(C[C@H]1S[C@H](c2ccc(Cl)cc2Cl)N(CC(=O)NCCCCCN2CCOCC2)C1=O)NCc1cccc2ccccc12
5 | 7 µM | O=C(CN1C(=O)[C@@H](CC(=O)NC2CCCCC2)S[C@@H]1c1ccc(Cl)cc1Cl)NCCCN1CCOCC1
6 | 100 µM | O=C(C[C@H]1S[C@H](CCc2ccccc2)N(CC(=O)NCCCN2CCOCC2)C1=O)NCc1cccc2ccccc12
7 | 7 µM | O=C(C[C@H]1S[C@H](c2ccc(Cl)cc2Cl)N(CC(=O)NCCCN2CCOCC2)C1=O)NCc1ccco1
8 | 1 µM | O=C(C[C@H]1S[C@H](c2ccc(F)cc2F)N(CC(=O)NCCCN2CCOCC2)C1=O)NCc1cccc2ccccc12
9 | 32 µM | COc1ccc(CNC(=O)C[C@H]2S[C@H](c3ccc(Cl)cc3Cl)N(CC(=O)NCCCN3CCOCC3)C2=O)c(OC)c1
10 | 6.7 µM | O=C(CN1C(=O)[C@@H](CC(=O)NC2CCCc3ccccc32)S[C@@H]1c1ccc(Cl)cc1Cl)NCCCN1CCOCC1 (stereo not given in full)
11 | 0.33 µM | O=C(C[C@H]1S[C@H](c2ccc(Cl)cc2Cl)N(CC(=O)N2CCC(N3CCCCC3)CC2)C1=O)NCc1cccc2ccccc12
12 | 6 µM | O=C(C[C@H]1S[C@H](c2ccc(Cl)cc2Cl)N(CC(=O)NCCCN2CCOCC2)C1=O)NCc1ccccc1-c1ccccc1
13 | 3.5 µM | O=C(C[C@H]1S[C@H](c2ccc(Cl)cc2Cl)N(CCC(=O)N2CCNCC2)C1=O)NCc1cccc2ccccc12
14 | 4 µM | O=C(C[C@H]1S[C@H](c2ccc(Cl)cc2Cl)N(CC(=O)NCCCN2CCOCC2)C1=O)NCc1cc(Cl)ccc1Cl
15 | 10 µM | O=C(C[C@H]1S[C@H](c2ccc(Cl)cc2Cl)N(CC(=O)NCCCN2CCOCC2)C1=O)NCc1ccccc1Cl
16 | 0.93 µM | O=C(C[C@H]1S[C@H](c2ccc(Cl)cc2Cl)N(CC(=O)NCCCN2CCOCC2)C1=O)NCc1cccc(Cl)c1
17 | 33 µM | O=C(C[C@H]1S[C@H](c2cccs2)N(CC(=O)NCCCN2CCOCC2)C1=O)NCc1cccc2ccccc12
18 | 2.4 µM and 0.83 µM | O=C(CC1SC(c2ccc(Cl)cc2)N(CC(=O)NCCCN2CCOCC2)C1=O)NCc1cccc2ccccc12 (stereo not given)
19 | 2 µM | O=C(C[C@H]1S[C@H](c2ccc(Cl)cc2Cl)N(CC(=O)NCCCN2CCOCC2)C1=O)NCc1ccc(Cl)cc1Cl (stereo in doubt; 66)
20 | 1.5 µM | O=C(C[C@H]1S[C@H](c2ccc(Cl)cc2Cl)N(CC(=O)NCCCN2CCOCC2)C1=O)NCc1cccc(F)c1
21 | > 100 µM | O=C(C[C@H]1S[C@H](Cc2ccccc2)N(CC(=O)NCCCN2CCOCC2)C1=O)NCc1cccc2ccccc12
22 | 11 µM | CN(C)CC(=O)NCCN1C(=O)[C@@H](CC(=O)NCc2cccc3ccccc23)S[C@@H]1c1ccc(Cl)cc1Cl
23 | 12 µM | C[C@H](NC(=O)C[C@H]1S[C@H](c2ccc(Cl)cc2Cl)N(CC(=O)NCCCN2CCOCC2)C1=O)c1ccccc1
24 | 11 µM | Cc1ccccc1CNC(=O)C[C@H]1S[C@H](c2ccc(Cl)cc2Cl)N(CC(=O)NCCCN2CCOCC2)C1=O
25 | 11 µM | Cc1ccc([C@H]2S[C@H](CC(=O)NCc3cccc4ccccc34)C(=O)N2CC(=O)NCCCN2CCOCC2)c(C)c1
26 | 6 µM | O=C(CN1C(=O)[C@@H](CC(=O)NC(c2ccccc2)c2ccccc2)S[C@@H]1c1ccc(Cl)cc1Cl)NCCCN1CCOCC1
27 | 24 µM | O=C(C[C@H]1S[C@H](c2ccc(Cl)cc2Cl)N(CCNS(=O)(=O)CCCN2CCOCC2)C1=O)NCc1cccc2ccccc12
28 | 33 µM | COc1ccc([C@H]2S[C@H](CC(=O)NCc3cccc4ccccc34)C(=O)N2CC(=O)NCCCN2CCOCC2)c(OC)c1
29 | 6 µM | O=C(C[C@H]1S[C@H](c2ccc(Cl)cc2Cl)N(CC(=O)NCCCN2CCOCC2)C1=O)NCc1ccc(Cl)c(C(F)(F)F)c1
30 | 0.36 µM | CN(C)CCCN(C)C(=O)CN1C(=O)[C@@H](CC(=O)NCc2cccc3ccccc23)S[C@@H]1c1ccc(Cl)cc1Cl
